Data taken from ChEMBL document CHEMBL1201862, “PubChem BioAssay data set” (2004).
Blank lines part the entries; values can stand above or below the compound they belong to. The source made the active and inactive calls.

What was measured:
[1] = biological target: Melanin-concentrating hormone receptor 1 (Homo sapiens, UniProt Q99705); experiment: Late-stage fluorescence-based counterscreen for antagonists of the G-protein coupled receptor 7 (GPR7): cell-based dose response assay to identify antagonists of the melanin-concentrating hormone receptor 1 (MCHR1) Set 6.; assay type: functional
[2] = biological target: T1, Neuropeptides B/W receptor type 1 (Homo sapiens, UniProt P48145); experiment: human NPBW1 receptor blockade, IC50 – cell-based, fluorescence, dose response, set 6, late-stage follow-up (AID 588583); assay type: functional
T1 sequence (P48145 whole entry): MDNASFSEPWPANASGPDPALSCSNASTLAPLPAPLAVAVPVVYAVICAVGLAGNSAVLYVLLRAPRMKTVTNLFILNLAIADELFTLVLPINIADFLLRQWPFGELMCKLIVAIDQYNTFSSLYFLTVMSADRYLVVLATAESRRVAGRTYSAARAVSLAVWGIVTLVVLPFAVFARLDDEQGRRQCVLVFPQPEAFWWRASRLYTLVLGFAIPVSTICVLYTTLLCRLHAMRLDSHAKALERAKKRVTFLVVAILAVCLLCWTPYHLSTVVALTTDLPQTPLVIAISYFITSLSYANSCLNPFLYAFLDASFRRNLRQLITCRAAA

CAAX prenyl protease 2 = CAAX prenyl protease 2 (Homo sapiens, UniProt Q9Y256); experiment: inhibition of Ras-converting CAAX protease Rce1 – biochemical, yeast membranes, quenched-peptide fluorescence, cherry-pick, dose response (AID 588849)
[3] = biological target: Disintegrin and metalloproteinase domain-containing protein 17 (Homo sapiens, UniProt P78536); experiment: exosite inhibitors of ADAM17, dose response, biochemical (AID 743260)
[4] = inhibition of ADAM10 peptide cleavage – biochemical, FRET peptide substrate, recombinant human ADAM10, selectivity assay for ADAM17 exosite inhibitor project, dose response (AID 743259);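 also: ADAM10 enzyme cleaving a FRET peptide substrate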
Vero = experiment: mammalian cell viability reduction – secondary assay, cytotoxicity control for West Nile virus antiviral project, dose response (AID 1650); assay type: functional; conditions: Chlorocebus sabaeus
[5] = Trypanosoma cruzi growth suppression in host cells – NIH3T3 host cells, beta-gal luminescence, confirmation (AID 2044); assay type: functional, cell-based;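 also: intracellular parasites grown in NIH/3T3 mouse fibroblasts as host cells; luminescent beta-galactosidase reporter signal from transgenic T. cruzi replicating inside host cells; inhibitors lower the luminescence signal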
[6] = NIH3T3 cell viability loss – ATP luminescence, mouse fibroblasts, counter-screen, dose response (AID 2010); assay type: functional, cell-based;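 also: cells exposed to compound for about 90 hours before reading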
Insulin-degrading enzyme [7] = biological target: T2, Insulin-degrading enzyme (Homo sapiens, UniProt P14735); experiment: recombinant IDE activation, cell-free – biochemical, fluorescence polarization, counter-screen for IDE activator project, dose response (AID 588681)
T2 sequence (P14735 whole entry): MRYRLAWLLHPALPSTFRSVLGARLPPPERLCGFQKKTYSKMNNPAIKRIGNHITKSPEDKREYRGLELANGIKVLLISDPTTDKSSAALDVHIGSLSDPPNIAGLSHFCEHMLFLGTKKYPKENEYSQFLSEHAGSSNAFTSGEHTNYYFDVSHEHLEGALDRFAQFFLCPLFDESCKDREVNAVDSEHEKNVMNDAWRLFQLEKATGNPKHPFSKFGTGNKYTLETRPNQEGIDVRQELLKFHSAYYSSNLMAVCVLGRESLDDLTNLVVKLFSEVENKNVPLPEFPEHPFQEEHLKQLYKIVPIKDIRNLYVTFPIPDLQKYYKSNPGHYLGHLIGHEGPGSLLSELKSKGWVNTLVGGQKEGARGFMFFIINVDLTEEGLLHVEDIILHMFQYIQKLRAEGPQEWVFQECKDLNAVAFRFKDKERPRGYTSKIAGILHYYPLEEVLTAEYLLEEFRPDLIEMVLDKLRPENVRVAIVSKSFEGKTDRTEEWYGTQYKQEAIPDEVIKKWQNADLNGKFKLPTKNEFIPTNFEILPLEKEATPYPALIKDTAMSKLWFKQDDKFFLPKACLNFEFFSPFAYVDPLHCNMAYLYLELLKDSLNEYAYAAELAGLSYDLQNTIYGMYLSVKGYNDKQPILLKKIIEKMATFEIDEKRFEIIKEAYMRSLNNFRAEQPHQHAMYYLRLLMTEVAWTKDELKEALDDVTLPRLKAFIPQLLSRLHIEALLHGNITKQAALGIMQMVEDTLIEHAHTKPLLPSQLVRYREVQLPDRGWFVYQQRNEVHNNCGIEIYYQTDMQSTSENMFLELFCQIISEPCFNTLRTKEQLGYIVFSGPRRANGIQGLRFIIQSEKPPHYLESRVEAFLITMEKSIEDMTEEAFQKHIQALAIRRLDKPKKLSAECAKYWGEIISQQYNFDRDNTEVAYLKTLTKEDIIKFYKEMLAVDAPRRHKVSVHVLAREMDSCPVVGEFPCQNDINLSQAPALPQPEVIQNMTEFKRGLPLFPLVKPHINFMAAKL

Insulin-degrading enzyme [8] = biological target: T2, Insulin-degrading enzyme; experiment: cellular IDE activation of Abeta substrate cleavage – fluorescence polarization, HEK cells, dose response (AID 588439); assay type: functional, cell-based
HEK293 [9] = experiment: membrane integrity loss in HEK cells – cell-based, fluorescence, cytotoxicity control for IDE activator project, dose response (AID 588440); assay type: functional; conditions: Homo sapiens;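 also: cytotoxicity by LDH release measuring loss of membrane integrity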
HEK293 [10] = experiment: optical interference in Abeta FP readout, dose response, artefact control for IDE activator project, biochemical, fluorescence polarization (AID 588442); assay type: functional, cell-based; conditions: Homo sapiens

Sequence of Disintegrin and metalloproteinase domain-containing protein 17 (P78536 whole entry, the tested form may be a part): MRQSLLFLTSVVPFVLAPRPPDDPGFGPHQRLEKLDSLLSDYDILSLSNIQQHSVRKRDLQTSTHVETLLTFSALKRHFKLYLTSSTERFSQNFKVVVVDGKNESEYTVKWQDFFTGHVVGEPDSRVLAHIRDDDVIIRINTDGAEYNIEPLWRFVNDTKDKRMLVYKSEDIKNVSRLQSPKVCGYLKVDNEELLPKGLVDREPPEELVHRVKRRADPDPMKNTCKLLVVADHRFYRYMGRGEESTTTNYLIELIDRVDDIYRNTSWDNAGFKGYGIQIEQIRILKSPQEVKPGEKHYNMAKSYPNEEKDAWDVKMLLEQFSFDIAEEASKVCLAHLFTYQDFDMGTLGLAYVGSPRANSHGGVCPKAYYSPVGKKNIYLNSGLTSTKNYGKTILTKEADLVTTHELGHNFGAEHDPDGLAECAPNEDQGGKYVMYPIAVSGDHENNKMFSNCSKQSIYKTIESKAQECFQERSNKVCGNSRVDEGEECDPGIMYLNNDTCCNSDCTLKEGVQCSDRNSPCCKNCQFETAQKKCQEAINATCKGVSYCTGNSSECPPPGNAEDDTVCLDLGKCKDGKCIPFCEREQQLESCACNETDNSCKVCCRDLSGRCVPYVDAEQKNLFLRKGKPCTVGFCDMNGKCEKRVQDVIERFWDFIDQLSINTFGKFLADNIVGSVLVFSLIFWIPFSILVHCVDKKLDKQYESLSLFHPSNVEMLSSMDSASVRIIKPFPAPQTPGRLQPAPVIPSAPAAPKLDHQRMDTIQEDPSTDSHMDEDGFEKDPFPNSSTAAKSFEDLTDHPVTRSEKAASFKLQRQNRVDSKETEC
Sequence of Melanin-concentrating hormone receptor 1 (Q99705 whole entry): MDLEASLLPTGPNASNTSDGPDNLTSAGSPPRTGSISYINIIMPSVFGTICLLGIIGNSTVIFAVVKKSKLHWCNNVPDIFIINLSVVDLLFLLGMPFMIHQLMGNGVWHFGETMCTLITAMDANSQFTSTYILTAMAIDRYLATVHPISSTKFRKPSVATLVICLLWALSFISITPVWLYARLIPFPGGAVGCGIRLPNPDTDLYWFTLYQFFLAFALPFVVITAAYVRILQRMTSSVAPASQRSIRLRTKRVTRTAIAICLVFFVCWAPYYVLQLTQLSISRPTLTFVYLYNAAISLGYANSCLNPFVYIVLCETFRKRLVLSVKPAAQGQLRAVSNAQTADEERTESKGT
Sequence of CAAX prenyl protease 2 (Q9Y256 whole entry, the tested form may be a part): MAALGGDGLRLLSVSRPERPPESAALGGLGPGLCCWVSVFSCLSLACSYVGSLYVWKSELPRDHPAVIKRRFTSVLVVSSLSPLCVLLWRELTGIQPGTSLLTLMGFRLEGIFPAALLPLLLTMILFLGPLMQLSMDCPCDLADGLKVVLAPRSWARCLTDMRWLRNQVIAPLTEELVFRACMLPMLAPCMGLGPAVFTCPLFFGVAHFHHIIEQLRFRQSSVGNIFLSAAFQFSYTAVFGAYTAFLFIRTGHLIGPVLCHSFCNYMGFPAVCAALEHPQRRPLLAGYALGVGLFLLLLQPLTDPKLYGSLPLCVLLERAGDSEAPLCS

IC50 [1]: 12 µM (inactive)
IC50 [2]: 12 µM (inactive)
Structure (SMILES): O=c1c(-c2ccccc2)c(Br)cnn1Cc1cccc2ccccc12

AC50 (CAAX prenyl protease 2): > 100 µM (inactive)
IC50 [3]: > 69.5 µM (inactive)
Structure (SMILES): O=C(Nc1cccc2ccccc12)c1ccc(OC(=S)N2CCOCC2)cc1
IC50 [4]: > 69.5 µM (inactive)

Structure (SMILES): CCN1CCN(c2cc(C)c3cc(NC(=S)N4CCN(c5ccccc5)CC4)ccc3n2)CC1
CC50 (Vero): 19.5 µM (active)
EC50 [5]: 1.79 µM (active)
EC50 [6]: > 60 µM (not active)
EC50 (Insulin-degrading enzyme [7]): > 54.7 µM (inactive)
EC50 (Insulin-degrading enzyme [8]): > 54.7 µM (inactive)
IC50 (HEK293 [9]): > 89.2 µM (inactive)
EC50 (HEK293 [10]): > 54.7 µM (inactive)
